The values below come from US20260053834A1, “COVALENT MODIFIERS OF AKT1 AND USES THEREOF” (Terremoto Biosciences, Inc., priority 2023, published 2026).

In one experiment the target is T1, AKT1 E17K (Homo sapiens, UniProt P31749, E17K).
T1 construct: expressed in transfected cells; host or cells: HEK293
In words: Live cell target engagement by NanoBRET competitive probe displacement, AKT1 E17K. Type of experiment: binding. The conditions noted are these: transfected HEK293 cells, 2 h at 37° C., read-out: AKT1 E17K IC50: GeoMean IC50.

For a further experiment, the target named is T2, AKT1 WT (Homo sapiens, UniProt P31749).
T2 construct: expressed in transfected cells; host or cells: HEK293
T2 sequence (P31749 whole entry): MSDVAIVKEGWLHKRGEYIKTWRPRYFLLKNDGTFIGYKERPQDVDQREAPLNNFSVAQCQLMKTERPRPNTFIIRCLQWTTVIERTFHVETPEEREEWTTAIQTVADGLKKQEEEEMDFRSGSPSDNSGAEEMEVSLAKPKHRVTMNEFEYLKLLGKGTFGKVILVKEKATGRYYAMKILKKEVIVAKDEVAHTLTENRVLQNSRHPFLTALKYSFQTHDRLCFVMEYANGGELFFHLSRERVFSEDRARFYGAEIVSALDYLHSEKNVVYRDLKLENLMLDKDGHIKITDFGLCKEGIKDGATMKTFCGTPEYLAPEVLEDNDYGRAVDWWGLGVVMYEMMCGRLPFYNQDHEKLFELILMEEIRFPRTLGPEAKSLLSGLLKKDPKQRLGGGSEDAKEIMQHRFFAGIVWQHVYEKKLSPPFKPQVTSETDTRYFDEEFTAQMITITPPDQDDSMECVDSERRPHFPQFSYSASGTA
As to the kind of experiment: Live cell target engagement by NanoBRET competitive probe displacement, AKT1 WT. Type of experiment: binding. The following applies: transfected HEK293 cells, 2 h at 37° C., read-out: AKT1 WT IC50: GeoMean IC50. Background: BRET reads energy transfer from a luciferase to a nearby fluorophore.

Experiment [1] concerns LAPC4 prostate cancer cells, which express the AKT1 E17K allele. In words: Antiproliferative effects in LAPC4 cells (CellTiter Glo, 72 h). Format: cell-based. The following applies: Homo sapiens, LAPC4, 72 h, read-out: LAPC4 proliferation IC50: GeoMean IC50. Put shortly: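 Cells grown in IMDM with 12% FBS, seeded at 1,000 cells/well and treated with compound dilutions in DMSO for 72 h. Intracellular ATP read by luminescence. IC50 from a log(inhibitor) vs. response Hill fit.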

The next experiment deals with T3, AKT2 (Homo sapiens, UniProt P31751).
T3 construct: expressed in transfected cells; host or cells: HEK293
T3 sequence (P31751 whole entry): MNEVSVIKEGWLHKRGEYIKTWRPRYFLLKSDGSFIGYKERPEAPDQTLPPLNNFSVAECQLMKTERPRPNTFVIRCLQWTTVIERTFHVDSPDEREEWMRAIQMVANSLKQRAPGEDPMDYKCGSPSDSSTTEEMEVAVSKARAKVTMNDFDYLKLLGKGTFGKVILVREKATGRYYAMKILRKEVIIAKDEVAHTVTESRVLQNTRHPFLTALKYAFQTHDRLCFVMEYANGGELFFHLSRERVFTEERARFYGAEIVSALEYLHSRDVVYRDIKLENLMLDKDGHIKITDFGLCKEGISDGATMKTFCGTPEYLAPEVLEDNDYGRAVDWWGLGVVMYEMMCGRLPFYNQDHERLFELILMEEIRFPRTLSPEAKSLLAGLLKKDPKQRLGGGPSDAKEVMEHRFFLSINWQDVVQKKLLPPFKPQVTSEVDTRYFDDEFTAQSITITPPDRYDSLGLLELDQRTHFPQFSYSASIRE
As to the kind of experiment: Live cell target engagement by NanoBRET competitive probe displacement, AKT2. The following applies: transfected HEK293 cells, 2 h at 37° C., read-out: AKT2 IC50: GeoMean IC50. Format: binding.

T1 sequence (P31749 whole entry E17K): as the sequence (P31749 whole entry) above, with E17K counted along it

`Nc1ncccc1-c1nc2ccc(-c3cnn(C(F)F)c3)nc2n1-c1ccc2c(c1)CC[C@@H]2NC(=O)c1ccc(O)c(C=O)c1` [Example 61, N-[(1S)-5-[2-(2-aminopyridin-3-yl)-5-[1-(difluoromethyl)pyrazol-4-yl]imidazo[4,5-b]pyridin-3-yl]-2,3-dihydro-1H-inden-1-yl]-3-formyl-4-hydroxybenzamide]: the IC50 is 10 to 100 nM on AKT1 E17K, 10 to 100 nM on AKT1 WT, 10 to 100 nM in experiment [1] and 100 to 2000 nM on AKT2.
On to `Nc1ncccc1-c1nc2ccc(-c3cnn(C4CC4)c3)nc2n1-c1ccc2c(c1)CC[C@@H]2NC(=O)c1ccc(O)c(C=O)c1` [Example 62, N-[(1S)-5-[2-(2-aminopyridin-3-yl)-5-(1-cyclopropylpyrazol-4-yl)imidazo[4,5-b]pyridin-3-yl]-2,3-dihydro-1H-inden-1-yl]-3-formyl-4-hydroxybenzamide], for which the IC50 at AKT1 E17K fell in the range of 10 to 100 nM; at AKT1 WT, 10 to 100 nM; in experiment [1], 100 to 2000 nM; at AKT2, 100 to 2000 nM.
`CN(C)C(=O)Nc1ccc(C(=O)N[C@H]2CCc3cc(-n4c(-c5cccnc5N)nc5ccc(-c6ccccc6)nc54)ccc32)cc1C=O` [Example 63, (S)—N-(5-(2-(2-aminopyridin-3-yl)-5-phenyl-3H-imidazo[4,5-b]pyridin-3-yl)-2,3-dihydro-1H-inden-1-yl)-4-(3,3-dimethylureido)-3-formylbenzamide]: the IC50 was less than 10 nM at AKT1 E17K, less than 10 nM on AKT1 WT, less than 10 nM in experiment [1] and 10 to 100 nM at AKT2.
On to `CC(=O)Nc1c(F)cc(C(=O)N[C@H]2CCc3cc(-n4c(-c5cccnc5N)nc5ccc(-c6ccccc6)nc54)ccc32)cc1C=O` [Example 64, N-[(1S)-5-[2-(2-aminopyridin-3-yl)-5-phenylimidazo[4,5-b]pyridin-3-yl]-2,3-dihydro-1H-inden-1-yl]-4-acetamido-3-fluoro-5-formylbenzamide], for which the IC50 (on AKT1 E17K; on AKT1 WT; in experiment [1]; at AKT2) was 10 to 100 nM in each case.
Consider `Nc1ncccc1-c1nc2ccc(-n3cccn3)nc2n1-c1ccc2c(c1)CC[C@@H]2NC(=O)c1cc(C=O)c2[nH]ncc2c1` [Example 66, N-[(1S)-5-[2-(2-aminopyridin-3-yl)-5-(pyrazol-1-yl)imidazo[4,5-b]pyridin-3-yl]-2,3-dihydro-1H-inden-1-yl]-7-formyl-1H-indazole-5-carboxamide], for which the IC50 at AKT1 E17K was less than 10 nM; at AKT1 WT it was 10 to 100 nM; in experiment [1] it was 10 to 100 nM; at AKT2, 100 to 2000 nM.
Turning to `Nc1ncccc1-c1nc2ccc(-c3cn[nH]c3)nc2n1-c1ccc2c(c1)CC[C@@H]2NC(=O)c1ccc(O)c(C=O)c1` [Example 67, N-[(1S)-5-[2-(2-aminopyridin-3-yl)-5-(1H-pyrazol-4-yl)imidazo[4,5-b]pyridin-3-yl]-2,3-dihydro-1H-inden-1-yl]-3-formyl-4-hydroxybenzamide], the IC50 (at AKT1 E17K; on AKT1 WT; in experiment [1]; at AKT2) was 100 to 2000 nM each time.
In the case of `Nc1ncccc1-c1nc2ccc(-c3ccccc3)nc2n1-c1ccc2c(c1)CC[C@@H]2NC(=O)c1ccc(NC(=O)N2CCOCC2)c(C=O)c1` [Example 68, N-(4-{[(1S)-5-[2-(2-aminopyridin-3-yl)-5-phenylimidazo[4,5-b]pyridin-3-yl]-2,3-dihydro-1H-inden-1-yl]carbamoyl}-2-formylphenyl)morpholine-4-carboxamide], the IC50 on AKT1 E17K lay within 10 to 100 nM; on AKT1 WT it was 10 to 100 nM; in experiment [1], 100 to 2000 nM; on AKT2, 100 to 2000 nM.
Turning to `Cc1cc(C)c2nc(-c3cccnc3N)n(-c3ccc4c(c3)CC[C@@H]4NC(=O)c3ccc(O)c(C=O)c3)c2n1` [Example 69, N-[(1S)-5-[2-(2-aminopyridin-3-yl)-5,7-dimethylimidazo[4,5-b]pyridin-3-yl]-2,3-dihydro-1H-inden-1-yl]-3-formyl-4-hydroxybenzamide], the IC50 on AKT1 E17K was 10 to 100 nM; on AKT1 WT, 100 to 2000 nM; in experiment [1] it was 100 to 2000 nM; on AKT2, not below 2000 nM.
`Nc1ncccc1-c1nc2ccc(-c3cnccn3)nc2n1-c1ccc2c(c1)CC[C@@H]2NC(=O)c1cc(F)c(O)c(C=O)c1` [Example 70, (S)—N-(5-(2-(2-aminopyridin-3-yl)-5-(pyrazin-2-yl)-3H-imidazo[4,5-b]pyridin-3-yl)-2,3-dihydro-1H-inden-1-yl)-3-fluoro-5-formyl-4-hydroxybenzamide]: the IC50 on AKT1 E17K was 10 to 100 nM; at AKT1 WT it was 10 to 100 nM; in experiment [1], 100 to 2000 nM; at AKT2, 100 to 2000 nM.
As for `COc1cnc(-c2ccc3nc(-c4cccnc4N)n(-c4ccc5c(c4)CC[C@@H]5NC(=O)c4ccc(O)c(C=O)c4)c3n2)cn1` [Example 71, (S)—N-(5-(2-(2-aminopyridin-3-yl)-5-(5-methoxypyrazin-2-yl)-3H-imidazo[4,5-b]pyridin-3-yl)-2,3-dihydro-1H-inden-1-yl)-3-formyl-4-hydroxybenzamide], the IC50 fell in the range of 10 to 100 nM at AKT1 E17K, 10 to 100 nM at AKT1 WT, 10 to 100 nM in experiment [1] and 100 to 2000 nM on AKT2.
On to `Cn1cc(-c2ccc3nc(-c4cccnc4N)n(-c4ccc5c(c4)CC[C@@H]5NC(=O)c4ccc(O)c(C=O)c4)c3n2)nn1` [Example 72, (S)—N-(5-(2-(2-aminopyridin-3-yl)-5-(1-methyl-1H-1,2,3-triazol-4-yl)-3H-imidazo[4,5-b]pyridin-3-yl)-2,3-dihydro-1H-inden-1-yl)-3-formyl-4-hydroxybenzamide], for which the IC50 on AKT1 E17K fell in the range of 10 to 100 nM; at AKT1 WT it was 10 to 100 nM; in experiment [1], 100 to 2000 nM; on AKT2, 100 to 2000 nM.
Consider `Nc1ncccc1-c1nc2ccc(-c3cnccn3)nc2n1-c1ccc2c(c1)CC[C@@H]2NC(=O)c1cc(C=O)c2[nH]ncc2c1` [Example 73, (S)—N-(5-(2-(2-aminopyridin-3-yl)-5-(pyrazin-2-yl)-3H-imidazo[4,5-b]pyridin-3-yl)-2,3-dihydro-1H-inden-1-yl)-7-formyl-1H-indazole-5-carboxamide], for which the IC50 was less than 10 nM at AKT1 E17K, 10 to 100 nM at AKT1 WT, 10 to 100 nM in experiment [1] and 100 to 2000 nM on AKT2.
Turning to `Nc1ncccc1-c1nc2ccc(-c3ccccc3)nc2n1-c1ccc2c(c1)C(=O)C[C@@H]2NC(=O)c1ccc(O)c(C=O)c1` [Example 74, N-[(1S)-5-[2-(2-aminopyridin-3-yl)-5-phenylimidazo[4,5-b]pyridin-3-yl]-3-oxo-1,2-dihydroinden-1-yl]-3-formyl-4-hydroxybenzamide], the IC50 was in the range of 10 to 100 nM on AKT1 E17K, 100 to 2000 nM on AKT1 WT, 100 to 2000 nM in experiment [1] and 100 to 2000 nM on AKT2.
`Nc1ncccc1-c1nc2ccc(-n3ccc(F)n3)nc2n1-c1ccc2c(c1)CC[C@@H]2NC(=O)c1ccc(O)c(C=O)c1` [Example 75, (S)—N-(5-(2-(2-aminopyridin-3-yl)-5-(3-fluoro-1H-pyrazol-1-yl)-3H-imidazo[4,5-b]pyridin-3-yl)-2,3-dihydro-1H-inden-1-yl)-3-formyl-4-hydroxybenzamide]: the IC50 was 10 to 100 nM at AKT1 E17K, 10 to 100 nM at AKT1 WT, 100 to 2000 nM in experiment [1] and 100 to 2000 nM at AKT2.
Turning to `Nc1ncccc1-c1nc2ccc(-n3cc(F)cn3)nc2n1-c1ccc2c(c1)CC[C@@H]2NC(=O)c1ccc(O)c(C=O)c1` [Example 76, N-[(1S)-5-[2-(2-aminopyridin-3-yl)-5-(4-fluoropyrazol-1-yl)imidazo[4,5-b]pyridin-3-yl]-2,3-dihydro-1H-inden-1-yl]-3-formyl-4-hydroxybenzamide], the IC50 on AKT1 E17K was 10 to 100 nM; on AKT1 WT, 100 to 2000 nM; in experiment [1], 100 to 2000 nM; on AKT2, 100 to 2000 nM.
With `Cc1cnn(-c2ccc3nc(-c4cccnc4N)n(-c4ccc5c(c4)CC[C@@H]5NC(=O)c4ccc(O)c(C=O)c4)c3n2)c1` [Example 77, (S)—N-(5-(2-(2-aminopyridin-3-yl)-5-(4-methyl-1H-pyrazol-1-yl)-3H imidazo[4,5-b]pyridin-3-yl)-2,3-dihydro-1H-inden-1-yl)-3-formyl-4-hydroxybenzamide], the IC50 on AKT1 E17K was in the range of 10 to 100 nM; on AKT1 WT, 10 to 100 nM; in experiment [1], 100 to 2000 nM; at AKT2, 100 to 2000 nM.
Regarding `Nc1ncccc1-c1nc2ccc(-n3cc(Cl)cn3)nc2n1-c1ccc2c(c1)CC[C@@H]2NC(=O)c1ccc(O)c(C=O)c1` [Example 78, N-[(1S)-5-[2-(2-aminopyridin-3-yl)-5-(4-chloropyrazol-1-yl)imidazo[4,5-b]pyridin-3-yl]-2,3-dihydro-1H-inden-1-yl]-3-formyl-4-hydroxybenzamide], the IC50 on AKT1 E17K lay within 10 to 100 nM; at AKT1 WT, 100 to 2000 nM; in experiment [1], 100 to 2000 nM; on AKT2 it was 100 to 2000 nM.
In the case of `N#Cc1ccc2nc(-c3cccnc3N)n(-c3ccc4c(c3)CC[C@@H]4NC(=O)c3ccc(O)c(C=O)c3)c2n1` [Example 79, (S)—N-(5-(2-(2-aminopyridin-3-yl)-5-cyano-3H-imidazo[4,5-b]pyridin-3-yl)-2,3-dihydro-1H-inden-1-yl)-3-formyl-4-hydroxybenzamide], the IC50 on AKT1 E17K is 100 to 2000 nM; on AKT1 WT it was 100 to 2000 nM; in experiment [1], not below 2000 nM; on AKT2, not below 2000 nM.
